Measurements as given in patent US10801879B2, “Magnesium zinc oxide nanostructure modified biosensor and monitoring of response of cell population to an agent using the same” (Rutgers, The State University of New Jersey, priority 2015, dated 2020).
In brackets after ≈: the same amount, converted by molar mass.

Key:
S. cerevisiae (yeast) [1] = experiment: MZOnano-QCM monitoring of antifungal drug effects on yeast; type: cell-based; settings: drug introduced at 330 min after initial growth seeding
Excerpt: (§1) The result using various embodiments in this patent document accurately detects both drug effects in a rapid manner.
(§2) This is due to the fact that the spectroscopic method relies on light absorption by the suspended cells, and dead yeast cells remain in suspension, thus contributing to the absorption.

P. aeruginosa = settings: FIG. 15(b)
Protocol: The sensor was placed inside an incubator at 37° C. while automatically measuring the acoustic spectrum every 15 minutes for 3 hours.

S. epidermidis = experiment: Standard broth dilution assay (MIC), S. epidermidis; type: cell-based; settings: Staphylococcus epidermidis
resistant E. coli = experiment: MZOnano-QCM detection of antimicrobial resistance of resistant E. coli; type: cell-based; settings: ampicillin-resistant cells, 256 μg/mL
Protocol: (§3) The first example illustrates the application of a magnesium zinc oxide (MZO) nanostructure-modified quartz crystal microbalance (MZOnano-QCM) biosensor disclosed in this document with reference to FIGS. 1A and 1B to dynamically monitor antibiotic effects on sensitive and resistant E. coli cells. MZO-nanostructures were grown on a standard QCM top-electrode using metal-organic chemical-vapor deposition. ZnO and MZO nanostructured-films are chosen for their multi-functionality and biocompatibility. Their surface-wettability and morphology can be controlled, offering high-sensitivity to various biological/biochemical species. MZO can withstand a larger pH range than ZnO does. Combining advantages of MZO nanostructures with the dynamic impedance spectrum capability of QCM makes MZOnano-QCM a highly-sensitive dynamic biosensor well-suited for AMR detection. The growth of E. coli on ZnO and MZO nanostructures was determined by 90-minute incubation.
(§4) FIGS. 4A-4D show the detection of antibiotic effects on E. coli using regular QCM, ZnOnano-QCM and MZOnano-QCM. The regular QCM failed detection due to low sensitivity while both ZnOnano- and MZOnano-QCM enable accurate detection of bacterial count during active growth though frequency shifts (Δf). The MZOnano-QCM offered four-fold higher sensitivity than ZnOnano-QCM. […]

[2] = test system: antibiotic-sensitive E. coli; experiment: MZOnano-QCM detection of antibiotic effects on sensitive E. coli; type: cell-based; settings: ampicillin-sensitive cells, 256 μg/mL
Protocol: as §3, §4

S. cerevisiae (yeast) [3] = experiment: Spectrophotometry (OD600) monitoring of antifungal drug effects on yeast; type: cell-based; settings: patent calls the identification incorrect
Excerpt: as §1, §2

[4] = test system: VP16-sensitive ALL cell line (CEM); experiment: MZOnano-QCM 48-hour monitoring of drug sensitive ALL (CEM) cells; type: cell-based
Protocol: (§5) The third example uses the drug VP16 (also known as etoposide, an anticancer agent), VP16-sensitive ALL cell line (CEM) and its VP16-resistant derivative cell line (CEM-V1) as a model for monitoring the effect of anticancer agents on the growth of cancer cells using the MZOnano-QCM sensor device, where the Mg composition x in MZO is 0.03.
For all of the experiments in this example, an initial seeding density of 4×10^5 cells in 2 mL of medium is used, the leukemia cell growth using the MZOnano-QCM is monitored dynamically for 48 hours. The drug (VP16) was introduced into the cell culture after 4 hours after the initial seeding. With reference to FIG. 7, the time-dependent frequency shift of the sensor for the entire 48-hour monitoring period of the drug sensitive CEM cells is shown. In the no-drug case, the frequency shift increases exponentially from 0-40 hours (indicating exponential cell accumulation on the sensing area) and then the frequency shift rate decreases showing saturation of the cell growth. In the case where the drug is introduced into the cell culture in the device, it is observed that the cells continue to grow after the drug has been introduced (4 hours after initial seeding), however, it is seen that the drug has taken effect 16 hours after the drug has been introduced.

[5] = test system: VP16-resistant derivative cell line (CEM-V1); experiment: MZOnano-QCM 48-hour monitoring of drug resistant ALL (CEM-V1) cells; type: cell-based
Excerpt: as §5
The same experiment can be repeated on drug resistant CEM leukemia cells (CEM-V1) using both the MZOnano-QCM sensor and the viability analyzer, and the monitoring can be conducted for 48 hours. […] The drug was added into the cell culture at 4 hours after the initial seeding of 4×10^5 cells. […] The various configurations used in the example in FIG. 11 are the same as those described with respect to FIG. 8, and the various configurations used in the example in FIG. 12 are the same as those described with respect to FIG. 9.

In the case of Clc1ccc(COC(Cn2ccnc2)c2ccc(Cl)cc2Cl)c(Cl)c1 (stereo not drawn) [miconazole], the “drug effect on yeast detected by sensor” value (S. cerevisiae (yeast) [1]) is reported as “growth inhibition effects”.

In the case of O=C(O)c1cn(C2CC2)c2cc(N3CCNCC3)c(F)cc2c1=O [ciprofloxacin], the “motional resistance in presence or absence of drug” value (P. aeruginosa) is reported as “dramatically different” and the MIC (S. epidermidis) is reported as 0.05 µg/mL (≈ 0.151 µM).

With CC1(C)S[C@@H]2[C@H](NC(=O)[C@H](N)c3ccccc3)C(=O)N2[C@H]1C(=O)O [ampicillin] the “Δf response upon treatment” value (resistant E. coli) was “continued increasing”, the “time within which Δf declined upon treatment” value [2] was ≤ 10 min and the “time within which Δf stopped increasing upon treatment” value [2] was ≤ 5 min.

For C[C@@H]1[C@H](O)[C@@H](C)/C=C/C=C/C=C/C=C/C=C/C=C/C=C/[C@H](O[C@@H]2O[C@H](C)[C@@H](O)[C@H](N)[C@@H]2O)C[C@@H]2O[C@](O)(C[C@@H](O)C[C@@H](O)[C@H](O)CC[C@@H](O)C[C@@H](O)CC(=O)O[C@H]1C)C[C@H](O)[C@H]2C(=O)O [amphotericin], the “drug effect on yeast detected by sensor” value (S. cerevisiae (yeast) [1]) was “cell-killing effects” and the “drug effect on yeast as identified by OD600 method” value (S. cerevisiae (yeast) [3]) was “fungi-static”.

COc1cc([C@@H]2c3cc4c(cc3[C@@H](O[C@@H]3O[C@@H]5CO[C@@H](C)O[C@H]5[C@H](O)[C@H]3O)[C@H]3COC(=O)[C@H]23)OCO4)cc(OC)c1O [VP16, etoposide] was tested, and the “cell response (frequency shift) after drug took effect” value ([4]; 20 hours to 48 hours) was “cells start to die (or stop to proliferate)”, the “time after drug introduction at which drug has taken effect” value ([4]; drug introduced 4 hours after initial seeding of 4×10^5 cells) was 16 h and the “cell response (frequency shift trend) in the presence of the drug” value ([5]; 48 hours monitoring) was “continuous cell growth”. The “time after addition of drug at which frequency shift started to decrease compared to no-drug control” value ([5]; drug added 4 hours after initial seeding of 4×10^5 cells) was ~15 h.
